The source of these data is ChEMBL document CHEMBL5214978, “Identification of 1,4-Benzodiazepine-2,5-dione Derivatives as Potential Protein Synthesis Inhibitors with Highly Potent Anticancer Activity” (J Med Chem, 2022).

The GI50 is the concentration at which growth is held to half of that of the control.

Format in all cases: functional
The subject of one assay is SF-295. Briefly: Anticancer activity against human SF-295 cells assessed as cell growth inhibition measured after 48 hrs by SRB assay. In general terms: The SRB assay estimates cell density from bound dye.
Assay [1] deals with Panel NCI-60 (60 carcinoma cell lines). As to the kind of experiment: Anticancer activity against human Panel NCI-60 (60 carcinoma cell lines) line assessed as cell growth inhibition measured after 48 hrs by SRB assay.
In another assay the test system is LOX IMVI. Briefly: Anticancer activity against human LOX IMVI cells assessed as cell growth inhibition measured after 48 hrs by SRB assay.
The subject of a further assay is HCT-116. As to the kind of experiment: Anticancer activity against human HCT-116 cells assessed as cell growth inhibition measured after 48 hrs by SRB assay.
A further assay has as its system A549. As to the kind of experiment: Anticancer activity against human A549 cells assessed as cell growth inhibition measured after 48 hrs by SRB assay.
The test system of another assay is 786-0. As to the kind of experiment: Anticancer activity against human 786-0 cells assessed as cell growth inhibition measured after 48 hrs by SRB assay.

Consider `CCN(CC)C(=O)C[C@@H]1NC(=O)c2cc(Oc3cc(C)cc(C)c3)c(N(C)C(=O)c3cc(OC)c(OC)c(OC)c3)cc2NC1=O`, for which the 50% growth inhibitory concentration (GI50) with SF-295 is more than 50000 nM; in assay [1], more than 50000 nM; in the assay with LOX IMVI, more than 50000 nM; in the assay with HCT-116 it was 50000 nM; in the assay with A549, more than 50000 nM; with 786-0 it was more than 50000 nM.
As for `COC(=O)C[C@@H]1NC(=O)c2cc(Oc3ccc(F)cc3)c(NC(=O)c3cc(OC)c(OC)c(OC)c3)cc2NC1=O`, the GI50 (in the assay on SF-295; in assay [1]; with LOX IMVI; in the assay with HCT-116; with A549; in the assay on 786-0) was more than 50000 nM each time.
For the molecule `CCN(CC)C(=O)C[C@H]1C(=O)Nc2cc(NC(=O)c3cc(OC)c(OC)c(OC)c3)c(Oc3cc(C)cc(C)c3)cc2C(=O)N1C`, the GI50 in the assay on SF-295 came out at 10 nM; in assay [1] it was 23 nM; with LOX IMVI it was 18 nM; in the assay on HCT-116, 21 nM; in the assay on A549 it was 17 nM; in the assay with 786-0 it was 41 nM.
As for `CCN(CC)C(=O)C[C@@H]1NC(=O)c2cc(Oc3cc(C)cc(C)c3)c(NC(=O)c3c(F)c(OC)c(OC)c(OC)c3Cl)cc2NC1=O`, the GI50 with SF-295 came out at 40 nM; in assay [1], 23 nM; in the assay with LOX IMVI it was 7 nM; in the assay on HCT-116, 17 nM; in the assay on A549, 15 nM; with 786-0, 61 nM.
With `COc1cc(C(=O)Nc2cc3c(cc2Oc2cc(C)cc(C)c2)C(=O)N[C@@H](Cc2nnc(C)o2)C(=O)N3)cc(OC)c1OC`, the GI50 in the assay with SF-295 came out at 940 nM; in assay [1], 1580 nM; in the assay with LOX IMVI, 1280 nM; in the assay on HCT-116, 1260 nM; in the assay on A549, 1380 nM; in the assay on 786-0 it was 1420 nM.
As to `CCCCN(CCCC)C(=O)C[C@@H]1NC(=O)c2cc(Oc3cc(C)cc(C)c3)c(NC(=O)c3cc(OC)c(OC)c(OC)c3)cc2NC1=O`, the concentration for 50% growth inhibition (GI50) with SF-295 was 320 nM; in the assay with LOX IMVI, 340 nM; with HCT-116, 460 nM; in the assay on A549, 360 nM; in the assay on 786-0 it was 360 nM.
For `COC(=O)C[C@@H]1NC(=O)c2cc(OC)c(NC(=O)c3cc(OC)c(OC)c(OC)c3)cc2NC1=O`, the GI50 (in the assay on SF-295; in assay [1]; in the assay on LOX IMVI; with HCT-116; in the assay with A549; in the assay with 786-0) was more than 50000 nM each time.
Turning to `COC(=O)C[C@@H]1NC(=O)c2cc(Oc3cc(C)cc(F)c3)c(NC(=O)c3cc(OC)c(OC)c(OC)c3)cc2NC1=O`, the GI50 stood at 150 nM in the assay on SF-295; 180 nM in assay [1]; 190 nM in the assay on LOX IMVI; 160 nM in the assay with HCT-116; 140 nM with A549; 160 nM in the assay on 786-0.
`COC(=O)C[C@@H]1NC(=O)c2cc(Oc3ccc4c(c3)CCC4)c(NC(=O)c3cc(OC)c(OC)c(OC)c3)cc2NC1=O`: the GI50 in the assay with SF-295 was 990 nM; in assay [1], 1860 nM; in the assay on LOX IMVI it was 1930 nM; in the assay on HCT-116, 1710 nM; in the assay with A549 it was 1400 nM; with 786-0, 2130 nM.
`COC(=O)C[C@@H]1NC(=O)c2cc(Oc3ccc(C)c(C)c3)c(NC(=O)c3cc(OC)c(OC)c(OC)c3)cc2NC1=O`: the GI50 in the assay on SF-295 was 1010 nM; in assay [1] it was 1910 nM; with LOX IMVI, 2550 nM; in the assay with HCT-116 it was 2010 nM; with A549, 1520 nM; in the assay with 786-0 it was 2400 nM.
With `COc1cc(C(=O)Nc2cc3c(cc2Oc2cc(C)cc(C)c2)C(=O)N[C@@H](CC(=O)N(C)C)C(=O)N3)cc(OC)c1OC`, the GI50 in the assay on SF-295 is 110 nM; in assay [1] it was 60 nM; in the assay with LOX IMVI, 20 nM; in the assay with HCT-116, 30 nM; in the assay with A549, 140 nM.
In the case of `CCN(CC)C(=O)C[C@H]1C(=O)Nc2cc(NC(=O)c3cc(OC)c(OC)c(OC)c3)c(Oc3cc(C)cc(C)c3)cc2C(=O)N1CC`, the GI50 with SF-295 came to 118 nM; in assay [1], 69 nM; in the assay with LOX IMVI, 134 nM; in the assay with HCT-116, 145 nM; with A549 it was 148 nM; in the assay with 786-0, 158 nM.
For the molecule `COC(=O)C[C@@H]1NC(=O)c2cc(Oc3cc(C)cc(C)c3)c(NC(=O)c3ccco3)cc2NC1=O`, the 50% growth inhibitory concentration (GI50) (with SF-295; in assay [1]; with LOX IMVI; in the assay on HCT-116; in the assay on A549; in the assay with 786-0) was more than 50000 nM throughout.
As for `COc1cc(C(=O)Nc2cc3c(cc2Oc2cc(C)cc(C)c2)C(=O)N[C@@H](CC(=O)O)C(=O)N3)cc(OC)c1OC`, the 50% growth inhibitory concentration (GI50) (with SF-295; in assay [1]; in the assay on LOX IMVI; with HCT-116; in the assay on A549; with 786-0) was more than 50000 nM in each case.
Consider `CCCCOC(=O)C[C@@H]1NC(=O)c2cc(Oc3cc(C)cc(C)c3)c(NC(=O)c3cc(OC)c(OC)c(OC)c3)cc2NC1=O`, for which the GI50 stood at 1910 nM with SF-295; 3980 nM with LOX IMVI; 510 nM in the assay with HCT-116; 1860 nM in the assay with A549; 1910 nM in the assay on 786-0.
`CCN(CC)C(=O)C[C@@H]1NC(=O)c2cc(Oc3cc(C)cc(C)c3)c(NC(=O)c3cc(OC)c(OC)c(OC)c3)cc2NC1=O`: the concentration for 50% growth inhibition (GI50) with SF-295 was determined as 20 nM; in assay [1], 30 nM; in the assay on LOX IMVI, 20 nM; in the assay with HCT-116, 20 nM; with A549, 20 nM; in the assay with 786-0, 90 nM.
For `COC(=O)C[C@@H]1NC(=O)c2cc(Oc3ccc(C(F)(F)F)cc3)c(NC(=O)c3cc(OC)c(OC)c(OC)c3)cc2NC1=O`, the GI50 (in the assay with SF-295; in assay [1]; in the assay on LOX IMVI; in the assay on HCT-116; in the assay with A549; with 786-0) was more than 50000 nM in each case.
`CCN(CC)C(=O)C[C@H]1C(=O)Nc2cc(NC(=O)c3cc(OC)c(OC)c(OC)c3Cl)c(Oc3cc(C)cc(C)c3)cc2C(=O)N1C`: the GI50 in the assay with SF-295 was 12 nM; in assay [1], 17 nM; in the assay on LOX IMVI it was less than 5 nM; in the assay on HCT-116, 13 nM; with A549, 9 nM; in the assay with 786-0 it was 10 nM.
With `COC(=O)C[C@@H]1NC(=O)c2cc(Oc3cc(C)cc(C)c3)c(NC(=O)c3cc(OC)cc(OC)c3)cc2NC1=O`, the GI50 in the assay on SF-295 was 80 nM; in assay [1], 240 nM; with LOX IMVI, 240 nM; in the assay with HCT-116, 200 nM; in the assay on A549, 150 nM; in the assay with 786-0 it was 150 nM.
As to `COC(=O)C[C@@H]1NC(=O)c2cc(OCc3cc(C)cc(C)c3)c(NC(=O)c3cc(OC)c(OC)c(OC)c3)cc2NC1=O`, the GI50 in the assay on SF-295 was 1500 nM; in assay [1] it was 3020 nM; with LOX IMVI, 2990 nM; in the assay with HCT-116 it was 2820 nM; in the assay with A549 it was 1810 nM; in the assay on 786-0 it was 4780 nM.
For `COC(=O)C[C@@H]1NC(=O)c2cc(OCCc3cc(C)cc(C)c3)c(NC(=O)c3cc(OC)c(OC)c(OC)c3)cc2NC1=O`, the 50% growth inhibitory concentration (GI50) in the assay on SF-295 worked out at 1610 nM; in assay [1], 3020 nM; in the assay with LOX IMVI it was 5150 nM; with HCT-116, 4010 nM; in the assay with A549, 2090 nM; with 786-0, 7450 nM.
On to `CCc1noc(C[C@@H]2NC(=O)c3cc(Oc4cc(C)cc(C)c4)c(NC(=O)c4cc(OC)c(OC)c(OC)c4)cc3NC2=O)n1`, for which the GI50 was 110 nM in the assay on SF-295; 270 nM in assay [1]; 130 nM in the assay on LOX IMVI; 260 nM with HCT-116; 140 nM with A549; 720 nM in the assay on 786-0.
As for `COC(=O)C[C@@H]1NC(=O)c2cc(-c3cc(C)cc(C)c3)c(NC(=O)c3cc(OC)c(OC)c(OC)c3)cc2NC1=O`, the concentration for 50% growth inhibition (GI50) (in the assay with SF-295; in assay [1]; in the assay on LOX IMVI; in the assay with HCT-116; in the assay on A549; in the assay with 786-0) was more than 50000 nM throughout.
As to `COC(=O)C[C@H]1NC(=O)c2cc(Oc3cc(C)cc(C)c3)c(NC(=O)c3cc(OC)c(OC)c(OC)c3)cc2NC1=O`, the GI50 (with SF-295; in assay [1]; with LOX IMVI; in the assay on HCT-116; with A549; with 786-0) was more than 50000 nM each time.
Regarding `COC(=O)C[C@@H]1NC(=O)c2cc(Oc3cc(C)cc(C)c3)c(NC(=O)c3ccc(F)cc3)cc2NC1=O`, the GI50 (in the assay on SF-295; in assay [1]; in the assay with LOX IMVI; in the assay with HCT-116; in the assay on A549; in the assay on 786-0) was more than 50000 nM each time.
With `COC(=O)C[C@@H]1NC(=O)c2cc(OCCCc3cc(C)cc(C)c3)c(NC(=O)c3cc(OC)c(OC)c(OC)c3)cc2NC1=O`, the GI50 (with SF-295; in assay [1]; in the assay on LOX IMVI; in the assay with HCT-116; with A549; in the assay on 786-0) was more than 50000 nM each time.
In the case of `CCN(CC)C(=O)C[C@@H]1NC(=O)c2cc(Oc3cc(C)c(Br)c(C)c3)c(NC(=O)c3cc(OC)c(OC)c(OC)c3)cc2NC1=O`, the GI50 in assay [1] worked out at 234 nM; in the assay on LOX IMVI, 128 nM; with HCT-116, 172 nM; in the assay with A549, 243 nM; in the assay on 786-0, 1000 nM.
Take `CCN(CC)C(=O)C[C@@H]1NC(=O)c2cc(Oc3cc(C)cc(C)c3)c(NC(=O)c3cc(OC)c(OC)c(OC)c3Cl)cc2NC1=O`: the GI50 in the assay on SF-295 was 23 nM; with LOX IMVI, less than 5 nM; with HCT-116, less than 13 nM; in the assay with A549, 17 nM; in the assay with 786-0, 40 nM.
